The numbers were not newly measured in patent US11590100B2, “Composition for buccal or sublingual administration of cannabis extract and methods for making same” (PANAXIA PHARMACEUTICAL INDUSTRIES LTD., priority 2017, dated 2023), which cites them from elsewhere.

On to `CCCCCc1cc(O)c2c(c1)OC(C)(C)[C@@H]1CCC(C)=C[C@@H]21` [THC, Delta-9-tetrahydrocannabinol], for which the peak effect (after oral administration) was 2 to 4 h. In addition, the absorbed (after single oral doses) is on record as 90-95%. In addition, the “administered dose reaching the systemic circulation” value (oral, first pass hepatic metabolism and poor aqueous solubility) is given as 10-20%.
